According to patent US11344620B2, “Combination therapies” (Novartis AG, priority 2014, dated 2022):

Experiments:
[1] = tested on: PD-L1 (CD274) mRNA in H3122 cells; assay: TaqMan RT PCR of PD-L1 mRNA in H3122 cells in vitro; format: cell-based, human; details: H3122 (NSCLC with ALK translocation) in vitro, FIG. 3
Description: (§1) TaqMan RT PCR assays were developed to detect changes of expression levels of PD-L1 (CD274) in cell lines and xenograft tumors. mRNA was isolated from frozen cell pellets or tumor fragments using the Qiagen RNeasy Mini kit. Isolated RNA was frozen at −80° C. RNA quality was checked and RNA was quantified using a 2100 Agilent Bioanalyzer following the protocol for the Agilent RNA 6000 Nano Kit. cDNA was prepared using a High Capacity RNA- to cDNA Kit (Applied Biosystems).
(§2) Real-time PCR reactions were carried out in 20 μl total volume, including 10 μl of Universal PCR master mix (Applied Biosystems), 1 μl of human PD-L1 (CD274) probe/primer set (Applied Biosystems), and 8 μl of cDNA. Each sample was run in triplicate. The amount of cDNA produced from 25-50 ng of RNA in the reverse transcription reaction was used in each PCR reaction. Due to difference in mRNA levels between PD-L1 and GAPDH, the two real-time PCR reactions were done in separate tubes using same amount of cDNA. The real-time PCR reaction was run on the C1000 Thermal Cycle (BioRad) with the cycle program as follows: a 10 minute incubation at 95° C. followed by 40 cycles of 95° C. for 15 seconds and 60° C. for 1 minute. After the reaction was complete, the PD-L1 average Ct was normalized relative to each Ct value from the GAPDH reference reaction. Each normalized logarithmic value was then converted into a linear value.

[2] = tested on: PD-L1 (CD274) on tumor cells; assay: Effects of targeted agents on PD-L1 modulation (real time PCR and flow cytometry), summary; format: cell-based, human
Text: This example evaluates the effects of selected therapeutic agents (e.g., INC280, MEK162, LGX818 and LDK378) on PD-L1 (CD274) modulation. Selected therapeutic agents were examined by real time PCR and flow cytometry on PD-L1 levels.

[3] = tested on: PD-L1 (CD274) surface expression in EBC-1 cells; assay: Flow cytometry of PD-L1 surface expression in EBC-1 cells in vitro; format: cell-based, human; details: EBC-1 cells (NSCLC with cMET amplification), FIG. 1
Description: PD-L1 (CD274) expression was analyzed in cancer cell lines treated with INC280. Cells were obtained from ATCC and cultured in vitro following ATCC directions. The cell lines used were previously characterized by the Cancer Cell Line Encyclopedia Project (http://www.broadinstitute.org/ccle/home). Cells plated in six-well culture plates were treated with the INC280 at different concentrations (10 nM, 100 nM, and 1000 nM) for 24, 48 and 72 hours. Equal amount of vehicle (DMSO) was used as a control. Cells were washed with PBS and then harvested using a cell scraper. For each reaction, 0.5-1×10^6 cells were stained with 20 μL of anti-human monoclonal PD-L1-PE antibody, clone M1H1 (BD) for 30-60 minutes at 4° C. Cells were washed twice and data was acquired using a Canto II with FACSDiva software (BD Bioscience). Data analysis was performed using FlowJo software (Tree Star). Mean fluorescence intensity (MFI) was determined by gating on single cells. Unstained cells were used as a gating control.

[4] = tested on: PD-L1 (CD274) mRNA in Hs.746.T tumor xenograft; assay: TaqMan RT PCR of PD-L1 mRNA in Hs.746.T tumor xenograft; format: in vivo, human; details: Hs.746.T tumor (gastric cancer, cMET amplification & mutation) xenograft, FIG. 2
Description: as §2, with “TaqMan RT PCR assays were developed to detect changes of expression levels of PD-L1 (CD274) in cell lines and xenograft tumors. mRNA was isolated from frozen cell pellets or tumor fragments using the Qiagen RNeasy Mini kit. Isolated RNA was frozen at −80° C. RNA quality was checked and RNA was quantified using a 2100 Agilent Bioanalyzer following the protocol for the Agilent RNA 6000 Nano Kit. cDNA was prepared using a High Capacity RNA- to cDNA Kit (Applied Biosystems). Real-time” for “Real-time”

[5] = tested on: PD-L1 (CD274) mRNA in LOXIMV1 tumors; assay: TaqMan RT PCR of PD-L1 mRNA in LOXIMV1 tumor xenograft model; format: in vivo, human; details: tumor xenograft model bearing LOXIMV1 (BRAF mutant melanoma), FIG. 4
Description: as §1, §2

WT EGFR = WT EGFR (Homo sapiens, UniProt P00533); details: at clinically relevant efficacious concentrations; cited from earlier work
Chain of WT EGFR (P00533 25-1210): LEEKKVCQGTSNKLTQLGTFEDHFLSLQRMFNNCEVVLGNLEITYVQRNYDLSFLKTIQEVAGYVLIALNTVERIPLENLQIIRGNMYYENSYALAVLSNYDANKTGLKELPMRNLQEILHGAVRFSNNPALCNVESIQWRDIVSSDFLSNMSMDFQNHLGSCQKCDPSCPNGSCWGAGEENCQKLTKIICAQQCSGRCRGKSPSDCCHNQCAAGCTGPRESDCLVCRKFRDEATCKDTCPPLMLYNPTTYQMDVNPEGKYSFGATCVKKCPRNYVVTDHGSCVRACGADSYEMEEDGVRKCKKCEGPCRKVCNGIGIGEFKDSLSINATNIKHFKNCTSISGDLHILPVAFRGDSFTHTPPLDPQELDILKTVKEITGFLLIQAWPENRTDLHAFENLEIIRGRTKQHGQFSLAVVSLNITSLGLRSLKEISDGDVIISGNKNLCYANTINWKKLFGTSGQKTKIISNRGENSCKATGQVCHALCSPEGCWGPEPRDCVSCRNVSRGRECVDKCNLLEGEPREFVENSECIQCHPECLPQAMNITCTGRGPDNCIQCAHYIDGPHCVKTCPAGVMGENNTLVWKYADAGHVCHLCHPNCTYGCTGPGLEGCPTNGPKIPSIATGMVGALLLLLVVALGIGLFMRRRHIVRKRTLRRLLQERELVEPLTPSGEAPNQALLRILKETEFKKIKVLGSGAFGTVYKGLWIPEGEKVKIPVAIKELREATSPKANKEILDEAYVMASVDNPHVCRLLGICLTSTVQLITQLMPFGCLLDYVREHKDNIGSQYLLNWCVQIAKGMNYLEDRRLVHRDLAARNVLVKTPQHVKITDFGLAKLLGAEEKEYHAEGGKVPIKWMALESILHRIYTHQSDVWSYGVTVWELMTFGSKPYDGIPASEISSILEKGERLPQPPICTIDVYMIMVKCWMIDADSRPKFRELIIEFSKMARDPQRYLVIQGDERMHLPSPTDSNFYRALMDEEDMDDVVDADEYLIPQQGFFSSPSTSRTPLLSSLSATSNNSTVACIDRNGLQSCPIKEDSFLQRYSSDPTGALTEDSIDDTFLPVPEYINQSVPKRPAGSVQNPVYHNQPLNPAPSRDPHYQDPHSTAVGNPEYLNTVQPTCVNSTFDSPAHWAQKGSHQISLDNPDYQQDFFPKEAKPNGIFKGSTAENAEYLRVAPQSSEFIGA

[6] = tested on: EGFR mutant (L858R, ex19del and T790M) cancer models; details: in vitro and in vivo; cited from earlier work
[7] = tested on: PD-L1 (CD274) mRNA in HEYA8 tumors; assay: TaqMan RT PCR of PD-L1 mRNA in HEYA8 tumor xenograft model; format: in vivo, human; details: tumor xenograft model bearing HEYA8 (KRAS mutant ovarian cancer), FIG. 5
Description: as §1, §2

Q: Which “PD-L1 mRNA” value [1] does the source give for `Cc1cc(Nc2ncc(Cl)c(Nc3ccccc3S(=O)(=O)C(C)C)n2)c(OC(C)C)cc1C1CCNCC1` [LDK378, 5-chloro-N2-(2-isopropoxy-5-methyl-4-(piperidin-4-yl)-phenyl)-N4-[2-(propane-2-sulfonyl)-phenyl]-pyrimidine-2,4-diamine, reference compound] here?
A: The value was “Inhibition”.

Q: What about the “inhibition of PD-L1 on tumor cells” value [2] of the same compound?
A: Its value is “Significant inhibition”.

Q: What does the source list for `CNC(=O)c1ccc(-c2cnc3ncc(Cc4ccc5ncccc5c4)n3n2)cc1F` [INC280, 2-fluoro-N-methyl-4-[7-(quinolin-6-ylmethyl)imidazo[1,2-b][1,2,4]triazin-2-yl]benzamide]?
A: surface expression of PD-L1 [3]: significant downregulation; PD-L1 expression (mRNA) [4]: Inhibition; inhibition of PD-L1 on tumor cells [2]: Significant inhibition

Q: What does the source list for `COC(=O)N[C@@H](C)CNc1nccc(-c2cn(C(C)C)nc2-c2cc(Cl)cc(NS(C)(=O)=O)c2F)n1` [LGX818, methyl (S)-(1-((4-(3-(5-chloro-2-fluoro-3-(methylsulfonamido)phenyl)-1-isopropyl-1H-pyrazol-4-yl)pyrimidin-2-yl)amino)propan-2-yl)carbamate]?
A: PD-L1 mRNA [5]: Downregulation; inhibition of PD-L1 on tumor cells [2]: Significant inhibition

Q: With `Cc1cc(C(=O)Nc2nc3cccc(Cl)c3n2[C@@H]2CCCCN(C(=O)/C=C/CN(C)C)C2)ccn1` [EGF816, (R,E)-N-(7-chloro-1-(1-(4-(dimethylamino)but-2-enoyl)azepan-3-yl)-1H-benzo[d]imidazol-2-yl)-2-methylisonicotinamide] as the compound, how does the “WT EGFR inhibition” value (WT EGFR) read?
A: Its value is “no indication of WT EGFR inhibition”.

Q: What about the “efficacy in EGFR mutant cancer models” value [6] of the same compound?
A: The value was “significant efficacy”.

Q: With `Cn1cnc2c(F)c(Nc3ccc(Br)cc3F)c(C(=O)NOCCO)cc21` [MEK162, 5-((4-bromo-2-fluorophenyl)amino)-4-fluoro-N-(2-hydroxyethoxy)-1-methyl-1H-benzo[d]imidazole-6-carboxamide] as the compound, how does the “PD-L1 mRNA” value [7] read?
A: The value was “Downregulation”.

Q: And the “inhibition of PD-L1 on tumor cells” value [2]?
A: Its value is “Significant inhibition”.
